For assay [1], the system named is E. coli SHV-3. Put plainly: Synergy MIC, inhibitor at 4 μg/mL (Example 4). The class given is cell-based. Particulars: SHV-3, class A, inhibitor constant 4 μg/mL.
Assay [2] relates to K. pneumoniae SHV-18. Put plainly: Synergy MIC, inhibitor at 4 μg/mL (Example 4). The class given is cell-based. Particulars: SHV-18, class A, inhibitor constant 4 μg/mL.
Assay [3] relates to E. coli TEM-2. The class given is cell-based. To be noted: TEM-2, class A, inhibitor constant 4 μg/mL.
For assay [4], the system named is C. freundii AmpC. Description: Synergy MIC, inhibitor at 4 μg/mL (Example 4). It is filed as cell-based, Citrobacter freundii. To be noted: class C, inhibitor constant 4 μg/mL. The procedure: (§1) The in vitro activities of the antibiotics were determined by the broth microdilution method and agar dilution technique as recommended by CLSI guidelines. The MIC experiments were performed in duplicate in 96-well microtiter plates using MHB. Serial twofold dilutions of each antibiotic either alone or in combination with a constant amount (4 μg/mL) of a β-lactamase inhibitor were prepared in MHBII broth. A sterile pipette tip was used to mix the contents of each well (one tip was used going from the low to the high concentration in the same column). The bacterial suspension with final inoculum 10^5 CFU/mL was transferred to the test medium containing the antibacterial substances by a multipoint inoculator (Dynatech, Chantilly, Va., USA). The plates were then incubated at 35° C. for 24 h.
(§2) Following procedures identical to those described in Example 3, representative compound of Formula (I) was tested for its ability to enhance antibiotic efficacy against Class C β-lactamase positive bacterial strains that are highly resistant to β-lactam antibiotics. Class C enzymes included AmpC β-lactamases of Enterobacter Cloacae and Citrobacter freundii.

Assay [5] deals with Escherichia coli TEM-1. It is filed as cell-based. Here is the method:
(§3) The MIC experiments were performed in duplicate in 96-well microtiter plates using CAMHB. Serial twofold dilutions of each antibiotic either alone or in combination with constant concentration ratio of a β-lactamase inhibitor (2:1) were prepared in CAMHB. The bacterial suspension with final inoculum 10^5 CFU/mL was transferred to the test medium containing the antibacterial substances. In each well of a 96-well microtiter plate was combined 50 μL of bacterial inoculum, 50 μL of antibiotic dilutions (or media for determination of the MIC of the antibiotic in the absence of test compound). Each plate included 4 wells with no bacterial inoculum (negative control) and 4 wells with no test compound and no antibiotic (positive control). The plates were incubated at 35° C. for 24 h. Purity check and colony counts on each inoculum suspension was performed to ensure that the final inoculum concentration routinely obtained closely approximates 5×10^5 CFU/mL. In addition the assay is routinely monitored by testing standard antibiotics and ensuring that MIC values are within the recommended ranges for the respective strains.
(§4) This test permits comparisons to be made between bacterial growth in the presence of antibiotic alone and bacterial growth in the presence of both an antibiotic and a novel (test) compound.

The test system of assay [6] is E. coli TEM-1. It is filed as cell-based. To be noted: TEM-1, class A, inhibitor constant 4 μg/mL.
For assay [7], the system named is Escherichia coli TEM-5. Description: MIC, characterised β-lactamase producing strain (Example 5, Tables 5-7). It is filed as cell-based. The procedure: as §3, with “Serial twofold dilutions of each antibiotic either alone or in combination with constant concentration ratio of a β-lactamase inhibitor (2:1) were prepared in CAMHB.” left out
as §4

Assay [8] has as its system Escherichia coli TEM-35. The assay is described as above. The class given is cell-based. Here is the method:
as §3, §4

The test system of assay [9] is Escherichia coli OXA-5. The description is as above. It is filed as cell-based. Here is the method: as §3, §4
Assay [10] deals with Escherichia coli OXA-3. Described as above. The class given is cell-based. Here is the method:
as §3, §4

Assay [11] relates to Escherichia coli SHV-2A. The description is as above. The class given is cell-based. Here is the method: as §3, §4
In assay [12] the test system is Klebsiella oxytoca K1 highperproduced. The description is as above. The class given is cell-based. The procedure:
as §3, §4

In assay [13] the test system is Escherichia coli HMS-1. The description is as above. The class given is cell-based. The procedure:
as §3, §4

Assay [14] concerns Escherichia coli TEM-31. The description is as above. It is filed as cell-based. The procedure:
as §3, §4

Assay [15] relates to Pseudomonas aeruginosa CARB-3. The assay is described as above. The class given is cell-based. The procedure:
as §3, §4

Assay [16] relates to Escherichia coli TEM-3. The description is as above. It is filed as cell-based. The procedure:
as §3, §4

Assay [17] concerns Escherichia coli TEM-2. The assay is described as above. The class given is cell-based. Here is the method: as §3, §4
Assay [18] relates to Escherichia coli OXA-2. The assay is described as above. It is filed as cell-based. The procedure: as §3, §4
The test system of assay [19] is Escherichia coli SHV-3. The assay is described as above. It is filed as cell-based. Here is the method: as §3, §4
Assay [20] relates to E. cloacae AmpC. Put plainly: Synergy MIC, inhibitor at 4 μg/mL (Example 4). The class given is cell-based, Enterobacter Cloacae. To be noted: class C, inhibitor constant 4 μg/mL. The procedure:
as §1, §2

≈ marks a conversion by molar mass, not a printed value. Read-outs that look alike come from different tables or passages of the source.

As usually defined, the MIC is the least concentration at which growth counts as inhibited.

On to `CO/N=C(\C(=O)N[C@@H]1C(=O)N2C(C(=O)[O-])=C(C[N+]3(C)CCCC3)CS[C@H]12)c1csc(N)n1` [cefepime], for which the minimal inhibitory concentration (MIC) in assay [1] was 0.4 µg/mL; in assay [2], 0.8 µg/mL; in [3], “≦0.025”; in assay [4] it was 0.8 µg/mL; in assay [5] (Escherichia coli TEM-1, functional group 2b, LK-157 in combination constant 4 μg/mL), 0.125 µg/mL; in assay [6] it was 12.8 µg/mL (≈ 26.6 µM). Besides, the MIC in assay [7] (Escherichia coli TEM-5, functional group 2be, LK-157 in combination constant 4 μg/mL) was found to be 0.5 µg/mL; in [8] (Escherichia coli TEM-35, functional group 2br, LK-157 in combination constant 4 μg/mL) it was 0.125 µg/mL; in assay [9] (Escherichia coli OXA-5, functional group 2d, LK-157 in combination constant 4 μg/mL) it was 0.125 µg/mL; in [10] (Escherichia coli OXA-3, functional group 2d, LK-157 in combination constant 4 μg/mL), 0.125 µg/mL; in assay [11] (functional group 2be, LK-157 in combination constant 4 μg/mL) it was 16 µg/mL; in assay [12] (Klebsiella oxytoca K1 highperproduced, functional group 2be, first listed (r47), LK-157 in combination constant 4 μg/mL), 1 µg/mL. The minimum inhibitory concentration (MIC) turned out to be 4 µg/mL in [12] (Klebsiella oxytoca K1 highperproduced, functional group 2be, second listed (r48), LK-157 in combination constant 4 μg/mL); 0.125 µg/mL in assay [13] (Escherichia coli HMS-1, functional group 2b, LK-157 in combination constant 4 μg/mL); 0.125 µg/mL in [14] (Escherichia coli TEM-31, functional group 2br, LK-157 in combination constant 4 μg/mL); 16 µg/mL in assay [15] (Pseudomonas aeruginosa CARB-3, functional group 2c, LK-157 in combination constant 4 μg/mL); 4 µg/mL in assay [16] (Escherichia coli TEM-3, functional group 2be, LK-157 in combination constant 4 μg/mL); 0.25 µg/mL in [17] (Escherichia coli TEM-2, functional group 2b, LK-157 in combination constant 4 μg/mL). For the same compound, the MIC turned out to be 0.125 µg/mL in [18] (Escherichia coli OXA-2, functional group 2d, LK-157 in combination constant 4 μg/mL); 4 µg/mL in assay [19] (Escherichia coli SHV-3, functional group 2be, LK-157 in combination constant 4 μg/mL); 0.8 µg/mL in [20] (first listed); 1.6 µg/mL in assay [20] (second listed); 1.6 µg/mL in [20] (third listed).

`CO/N=C(\C(=O)N[C@@H]1C(=O)N2C(C(=O)O)=C(COC(C)=O)CS[C@H]12)c1csc(N)n1` [cefotaxime]: the minimum inhibitory concentration (MIC) was 3.2 µg/mL in assay [1]; 3.2 µg/mL in assay [2]; 0.1 µg/mL (≈ 0.22 µM) in assay [3]; above 25.6 µg/mL in assay [4]; 0.063 µg/mL in assay [5] (Table 6, Escherichia coli TEM-1, LK-157 at constant 4 μg/mL in combination); above 25.6 µg/mL in [6]. For the same compound, the MIC was 0.063 µg/mL in assay [7] (Table 6, Escherichia coli TEM-5, LK-157 at constant 4 μg/mL in combination); 0.031 µg/mL in assay [8] (Table 6, Escherichia coli TEM-35, LK-157 at constant 4 μg/mL in combination); 0.25 µg/mL in assay [9] (Table 6, Escherichia coli OXA-5, LK-157 at constant 4 μg/mL in combination); 0.063 µg/mL in assay [10] (Table 6, Escherichia coli OXA-3, LK-157 at constant 4 μg/mL in combination); 8 µg/mL in assay [11] (Table 6, LK-157 at constant 4 μg/mL in combination); 1 µg/mL in assay [12] (Table 6, Klebsiella oxytoca K1 highperproduced, first listed strain, LK-157 at constant 4 μg/mL in combination). For the same compound, the MIC in assay [12] (Table 6, Klebsiella oxytoca K1 highperproduced, second listed strain, LK-157 at constant 4 μg/mL in combination) worked out at 1 µg/mL; in assay [13] (Table 6, Escherichia coli HMS-1, LK-157 at constant 4 μg/mL in combination), 0.063 µg/mL; in [14] (Table 6, Escherichia coli TEM-31, LK-157 at constant 4 μg/mL in combination), 0.063 µg/mL; in assay [15] (Table 6, Pseudomonas aeruginosa CARB-3, LK-157 at constant 4 μg/mL in combination) it was 16 µg/mL; in assay [16] (Table 6, Escherichia coli TEM-3, LK-157 at constant 4 μg/mL in combination), 16 µg/mL; in assay [17] (Table 6, Escherichia coli TEM-2, LK-157 at constant 4 μg/mL in combination) it was 0.063 µg/mL. Further, the minimal inhibitory concentration (MIC) in assay [18] (Table 6, Escherichia coli OXA-2, LK-157 at constant 4 μg/mL in combination) was 0.063 µg/mL; in assay [19] (Table 6, Escherichia coli SHV-3, LK-157 at constant 4 μg/mL in combination) it was 32 µg/mL; in assay [20] (first listed) it was above 25.6 µg/mL; in [20] (second listed), above 25.6 µg/mL; in [20] (third listed), above 25.6 µg/mL.

In the case of `CC(C)(O/N=C(\C(=O)N[C@@H]1C(=O)N2C(C(=O)[O-])=C(C[n+]3ccccc3)CS[C@H]12)c1csc(N)n1)C(=O)O` [ceftazidime], the minimal inhibitory concentration (MIC) in [1] was 0.8 µg/mL; in assay [2], 25.6 µg/mL; in assay [3], 1.6 µg/mL (≈ 2.93 µM); in assay [4], above 25.6 µg/mL; in assay [5] (Table 7, Escherichia coli TEM-1, combination at constant concentration ratio (2:1)), 0.25 µg/mL; in [6], 3.2 µg/mL (≈ 5.85 µM). Further, the MIC in assay [7] (Table 7, Escherichia coli TEM-5, combination at constant concentration ratio (2:1)) was 4 µg/mL; in [8] (Table 7, Escherichia coli TEM-35, combination at constant concentration ratio (2:1)), 0.25 µg/mL; in assay [9] (Table 7, Escherichia coli OXA-5, combination at constant concentration ratio (2:1)) it was 0.5 µg/mL; in assay [10] (Table 7, Escherichia coli OXA-3, combination at constant concentration ratio (2:1)), 0.5 µg/mL; in [11] (Table 7, combination at constant concentration ratio (2:1)) it was 4 µg/mL; in assay [12] (Table 7, Klebsiella oxytoca K1 hyperproduced, first listed strain, combination at constant concentration ratio (2:1)), 1 µg/mL. Further, the minimum inhibitory concentration (MIC) stood at 0.5 µg/mL in [12] (Table 7, Klebsiella oxytoca K1 hyperproduced, second listed strain, combination at constant concentration ratio (2:1)); 0.25 µg/mL in [13] (Table 7, Escherichia coli HMS-1, combination at constant concentration ratio (2:1)); 0.25 µg/mL in assay [14] (Table 7, Escherichia coli TEM-31, combination at constant concentration ratio (2:1)); 2 µg/mL in assay [15] (Table 7, Pseudomonas aeruginosa CARB-3, combination at constant concentration ratio (2:1)); 32 µg/mL in [16] (Table 7, Escherichia coli TEM-3, combination at constant concentration ratio (2:1)); 0.5 µg/mL in assay [17] (Table 7, Escherichia coli TEM-2, combination at constant concentration ratio (2:1)). For the same compound, the MIC in [18] (Table 7, Escherichia coli OXA-2, combination at constant concentration ratio (2:1)) is 1 µg/mL; in assay [19] (Table 7, Escherichia coli SHV-3, combination at constant concentration ratio (2:1)), 2 µg/mL; in assay [20] (first listed), above 25.6 µg/mL; in assay [20] (second listed), above 25.6 µg/mL; in assay [20] (third listed), above 25.6 µg/mL.
